This is an account of results in patent US20110190365A1, “Insecticidal 4-phenyl-1H-pyrazoles” (Bayer Crop Science AG, priority 2008, published 2011).

Read-outs that look alike come from different tables or passages of the source.

Data set [1] relates to larvae of the mustard beetle (Phaedon cochleariae). The data set can be described thus: Phaedon cochleariae test (PHAECO spray treatment). Format: in vivo. The note with it: application rate 500 g/ha, Chinese cabbage leaf discs sprayed, after 7 days; for pest or weed control at 500 g/ha: Phaedon cochleariae, foliar, 168 h, read-out: effect in % (beetle larvae killed). On the procedure:
Phaedon cochleariae Test (PHAECO Spray Treatment)
(§1) Solvent: 78.0 parts by weight of acetone • • 1.5 parts by weight of dimethylformamide Emulsifier: 0.5 part by weight of alkylaryl polyglycol ether
(§2) To produce a suitable preparation of active compound, 1 part by weight of active compound is mixed with the stated amounts of solvent and emulsifier, and the concentrate is diluted with emulsifier-containing water to the desired concentration.
Discs of Chinese cabbage (Brassica pekinensis) are sprayed with an active compound preparation of the desired concentration and, after drying, populated with larvae of the mustard beetle (Phaedon cochleariae).
After 7 days, the effect in % is determined. 100% means that all beetle larvae have been killed; 0% means that none of the beetle larvae have been killed.

In data set [2] the test system is green peach aphid (Myzus persicae). The data set can be described thus: Myzus persicae test (MYZUPE spray treatment). Format: in vivo. The note with it: application rate 500 g/ha, Chinese cabbage leaf discs sprayed, after 6 days. As for the experimental part: Myzus persicae Test (MYZUPE Spray Treatment)
as §1, §2
Discs of Chinese cabbage (Brassica pekinensis) infected by all stages of the green peach aphid (Myzus persicae) are sprayed with an active compound preparation of the desired concentration.
After 6 days, the effect in % is determined. 100% means that all of the aphids have been killed; 0% means that none of the aphids have been killed.

The nature of data set [3]: log P by HPLC on a reversed-phase column (C18), EEC Directive 79/831 Annex V.A8. Format: physicochemical. As for the experimental part: The stated log P values were determined in accordance with EEC Directive 79/831 Annex V.A8 by HPLC (High Performance Liquid Chromatography) using a reversed-phase column (C18).
For data set [4], the system named is caterpillars of the armyworm (Spodoptera frugiperda). The data set can be described thus: Spodoptera frugiperda test (SPODFR spray treatment). The note with it: application rate 500 g/ha, maize leaf discs sprayed, after 7 days. Format: in vivo. As for the experimental part: Spodoptera frugiperda Test (SPODFR Spray Treatment)
as §1, §2
Discs of maize leaves (Zea mays) are sprayed with an active compound preparation of the desired concentration and, after drying, populated with caterpillars of the armyworm (Spodoptera frugiperda).
After 7 days, the effect in % is determined 100% means that all caterpillars have been killed; 0% means that none of the caterpillars have been killed.

Data set [5] concerns stage 3 Spodoptera litura larvae. Kind of data set: Spodoptera litura larvae test. The format is in vivo. The note with it: active compound concentration 500 ppm, sweet potato leaf dip, after 7 days, mean of two dishes. On the procedure: Spodoptera litura Larvae Test
(§3) Solvent: 3 parts by weight of dimethylformamide Emulsifier: 1 part by weight of polyoxyethylene alkylphenyl ether
To prepare a suitable active compound, 1 part by weight of active compound is mixed with the stated amount of solvent comprising the stated amount of emulsifier, and the mixture is diluted with water to the specified concentration.
Sweet potato leaves are dipped into the sample solution diluted with water to the specified concentration and the leaves treated in this manner are, after the solution adhering to the leaves has dried in air, transferred into a laboratory dish which has a diameter of 9 cm and in which there are 10 stage 3 Spodoptera litura larvae. The dish is then placed in a temperature-controlled room at 25° C., sweet potato leaves are then added to the dish on day two and day four and the number of dead insects is determined after 7 days and used to calculate the insecticidal ratio.
The results are the means of two laboratory dishes per group in this test.

Data set [6] has as its system stage 2 Aulacophora femoralis larvae. The data set can be described thus: Aulacophora femoralis test (spray test). Format: in vivo. The conditions noted are these: active compound concentration 500 ppm, cucumber leaf dip, after 7 days. On the procedure: Aulacophora femoralis Test (Spray Test)
as §3
To prepare a suitable active compound formulation, 1 part by weight of the active compound is mixed with the stated amount of solvent comprising the stated amount of emulsifier, and the mixture is diluted with water to a specified concentration.
Cucumber leaves are dipped into a dilute aqueous solution of an active compound at the specified concentration prepared in the same manner as in the test described above, air-dried and transferred into a plastic dish with sterilized black soil. 5 stage 2 Aulacophora femoralis larvae are transferred into this dish. The dish is then placed into a temperature-controlled room at 25° C. After 7 days, the number of dead larvae is counted to calculate the mortality.

[7] abbreviates: HPLC, reversed-phase C18, mobile phase with formic acid.
Setting [8] is: HPLC, reversed-phase C18, mobile phase with formic acid, read-out: log P (HCOOH).

`N#Cc1cc(-n2nc(C(F)(F)F)c(-c3cc(Cl)cc(Cl)c3)c2N)ccc1-n1cnc(S)n1` [I-A-Q1-089]: in data set [1], the “effect in % (beetle larvae killed)” value is given as 83%. For the same molecule, in data set [2], the “effect in % (aphids killed)” value is 90%. Besides, in data set [3] (setting [7]), the “log P (HCOOH)” value is recorded as “I-A-Q1-089: log P (HCOOH): 3.53”.
For the molecule `N#Cc1cc(-n2nc(C(F)(F)F)c(-c3cc(Cl)cc(Cl)c3)c2N)ccc1-n1cnc(Cl)n1` [I-A-Q1-091], the “effect in % (beetle larvae killed)” value in data set [1] is recorded as 100%. Moreover, the “log P (HCOOH)” value in data set [3] (setting [7]) is “I-A-Q1-091: log P (HCOOH): 4.17”. The “effect in % (caterpillars killed)” value in data set [4] came to 100%.
Take `O=C(NCc1ccccn1)c1ccc(-n2cc(-c3cc(Cl)cc(Cl)c3)c(C(F)(F)F)n2)cc1C(F)(F)F` [I-A-Q2-001]: the “log P (pH 2)” value in data set [3] (pH 2) is listed as “I-A-Q2-001: log P (pH 2): 4.02”. Moreover, the “log P (pH 7.5)” value in data set [3] (pH 7.5) is given as “log P (pH 7.5): 4.74”. Moreover, the “kill of the insect larvae” value in data set [5] amounted to 100%.
Regarding `O=C(NCC(F)(F)F)c1ccc(-n2cc(-c3cc(Cl)cc(Cl)c3)c(C(F)(F)F)n2)cc1C(F)(F)F` [I-A-Q2-002, 4-[4-(3,5-Dichlorophenyl)-3-trifluoromethylpyrazol-1-yl]-N-(2,2,2-trifluoroethyl)-2-trifluoromethylbenzamide], in data set [6], the “kill of the insects” value was found to be 100%. Besides, the chromatographic logP was found to be 5.16 in data set [3] (pH 2, read-out: log P (pH 2)) and 5.14 in data set [3] (pH 7.5, read-out: log P (pH 7.5)). Also, the “kill of the insect larvae” value in data set [5] amounted to 100%.
Consider `O=C(NCc1ccccn1)c1ccc(-n2cc(-c3cc(Cl)cc(Cl)c3)c(C(F)(F)F)n2)cc1[N+](=O)[O-]` [I-A-Q2-003], for which the “kill of the insect larvae” value in data set [5] is 100%.
Turning to `CC(NC(=O)c1ccc(-n2cc(-c3cc(Cl)cc(Cl)c3)c(C(F)(F)F)n2)cc1C(F)(F)F)C(F)(F)F` (stereo not drawn) [I-A-Q2-005], in data set [6], the “kill of the insects” value turned out to be 100%. Further, the “kill of the insect larvae” value in data set [5] came to 100%.
For the molecule `CC(NC(=O)c1ccc(-n2cc(-c3cc(Cl)cc(Cl)c3)cn2)cc1C(F)(F)F)C(F)(F)F` (stereo not drawn) [I-A-Q2-006], the “kill of the insect larvae” value in data set [5] was determined as 100%.
As to `O=C(NCC(F)(F)F)c1ccc(-n2cc(-c3cc(C(F)(F)F)cc(C(F)(F)F)c3)c(C(F)(F)F)n2)cc1C(F)(F)F` [I-A-Q2-010], the “kill of the insects” value in data set [6] turned out to be 100%. Besides, the “kill of the insect larvae” value in data set [5] is 100%.
Consider `Cc1cc(-n2nc(C(F)(F)F)c(-c3cc(Cl)cc(Cl)c3)c2I)ccc1C(=O)NCc1ccccn1` [I-A-Q2-025, 4-[4-(3,5-Dichlorophenyl)-5-iodo-3-trifluoromethylpyrazol-1-yl]-2-methyl-N-pyridin-2-ylmethylbenzamide], for which, in data set [1], the pest or weed control at 500 g/ha is over 80%. Moreover, in data set [3] (setting [8]), the chromatographic logP amounted to 4.29.
Taken in the same sequence, the figures for `CSc1c(-c2cc(Cl)cc(Cl)c2)c(C(F)(F)F)nn1-c1ccc(C(=O)NC(C)C(F)(F)F)c(C)c1` (stereo not drawn) [I-A-Q2-027, 4-[4-(3,5-Dichlorophenyl)-5-methylsulphanyl-3-trifluoromethylpyrazol-1-yl]-2-methyl-N-(2,2,2-trifluoro-1-methylethyl)benzamide] were over 80% and 5.48.
As for `CSc1cc(-n2nc(C(F)(F)F)c(-c3cc(Cl)cc(Cl)c3)c2N)ccc1C(=O)NCc1ccccn1` [I-A-Q2-409], the “log P (HCOOH)” value in data set [3] (HCOOH) is reported as “I-A-Q2-409: log P (HCOOH): 3.38”. Moreover, the “effect in % (caterpillars killed)” value in data set [4] is 83%.
For `Cc1cc(-n2nc(C(F)(F)F)c(-c3ccc(Cl)cc3Cl)c2N)ccc1C(=O)NC(C)c1ccccn1` (stereo not drawn) [I-A-Q2-412], in data set [1], the “effect in % (beetle larvae killed)” value is recorded as 100%. In data set [3] (HCOOH), the “log P (HCOOH)” value is given as “I-A-Q2-412: log P (HCOOH): 3.29”.
In the same order, the values of `Cc1cc(-n2nc(C(F)(F)F)c(-c3ccccc3Cl)c2N)ccc1C(=O)NCc1ncccn1` [I-A-Q2-414] are 100% and “I-A-Q2-414: log P (HCOOH): 2.72”.
Taken in the same sequence, the figures for `Cc1cc(-n2nc(C(F)(F)F)c(-c3ccccc3Cl)c2N)ccc1C(=O)NC(C)c1ccccn1` (stereo not drawn) [I-A-Q2-415] were 100% and “I-A-Q2-415: log P (HCOOH): 2.71”.
Taken in the same sequence, the figures for `Cc1cc(-n2nc(C(F)(F)F)c(-c3cccc(Br)c3)c2N)ccc1C(=O)NCc1ncccn1` [I-A-Q2-417] were 100% and “I-A-Q2-417: log P (HCOOH): 3.13”.
Regarding `Cc1cc(-n2nc(C(F)(F)F)c(-c3ccccc3Br)c2N)ccc1C(=O)NCc1ncccn1` [I-A-Q2-419], the “effect in % (beetle larvae killed)” value in data set [1] came out at 100%. Besides, in data set [3] (HCOOH), the “log P (HCOOH)” value is listed as “I-A-Q2-419: log P (HCOOH): 2.68”.
On to `Cc1cc(-n2nc(C(F)(F)F)c(-c3ccccc3Br)c2N)ccc1C(=O)NC(C)c1ccccn1` (stereo not drawn) [I-A-Q2-420], for which, in data set [1], the “effect in % (beetle larvae killed)” value is recorded as 100%. Further, the “log P (HCOOH)” value in data set [3] (HCOOH) was “I-A-Q2-420: log P (HCOOH): 2.81”.
Taken in the same sequence, the figures for `Cc1cc(-n2nc(C(F)(F)F)c(-c3ccccc3Br)c2N)ccc1C(=O)NCc1ccccn1` [I-A-Q2-421] were 100% and “I-A-Q2-421: log P (HCOOH): 2.53”.
As for `CCOC(=O)c1ccc(-n2cc(-c3cc(Cl)cc(Cl)c3)c(C(F)(F)F)n2)cc1C(F)(F)F` [I-A-Q4-001, Ethyl 4-[4-(3,5-dichlorophenyl)-3-trifluoromethylpyrazol-1-yl]-2-trifluoromethylbenzoate], in data set [5], the “kill of the insect larvae” value is on record as 80%.
`O=[N+]([O-])c1ccc(-n2cc(-c3cc(Cl)cc(Cl)c3)c(C(F)(F)F)n2)cc1C(F)(F)F` [I-A-Q4-006]: the “kill of the insect larvae” value in data set [5] was found to be 80%.
For `N#Cc1cc(-n2nc(C(F)(F)F)c(-c3cc(Cl)cc(C(F)(F)F)c3)c2N)ccc1F` [I-A-Q4-009, 5-[5-Amino-4-(3-chloro-5-trifluoromethylphenyl)-3-trifluoromethylpyrazol-1-yl]-2-fluorobenzonitrile], the pest or weed control at 500 g/ha in data set [1] is over 80%. Further, the chromatographic logP in data set [3] (setting [8]) stood at 4.54.
In the same order, the values of `COC(=O)c1ccc(-n2nc(C(F)(F)F)c(-c3cc(Cl)cc(Cl)c3)c2N)cc1C` [I-A-Q4-011, Methyl 4-[5-amino-4-(3,5-dichlorophenyl)-3-trifluoromethylpyrazol-1-yl]-2-methylbenzoate] are over 80% and 5.08.
